Converted amounts (≈) assume the structure as drawn.

We go through 13 molecules from ChEMBL document CHEMBL4219064, “Identification of novel quinazolinedione derivatives as RORγt inverse agonist” (Bioorg Med Chem, 2018).

Data set [1] in a line: AUC in rat at 1 mg/kg, po. In kind it is ADME, organism-based. To be noted: in vivo.
Data set [2] can be described thus: Clearance in rat at 1 mg/kg, po or 0.1 mg/kg, iv. The format is ADME, organism-based. The settings on record: in vivo.
The nature of data set [3]: Oral bioavailability in rat at 1 mg/kg. The format is ADME, organism-based. The settings on record: in vivo.
The nature of data set [4]: Kinetic solubility of the compound in second fluid of disintegration test of the Japanese Pharmacopoeia at pH 6.8 by HPLC analysis.
The nature of data set [5]: Lipophilicity, log D of the compound at pH 7.4. In kind it is physicochemical. To be noted: buffer.
The test system of another data set is Rattus norvegicus. The experiment in a line: In vivo inverse agonist activity at RORgammat in po dosed Lewis rat experimental autoimmune encephalomyelitis model assessed as inhibition of IL-17A mRNA levels in popliteal lymph nodes administered twice daily for 5 days by qRT-PCR analysis. The settings on record: 120 h, read-out: MED. The format is functional. On the technique in general: In qPCR the cycle at which signal appears reflects the starting amount.

The nature of another data set: tissue or blood. The settings on record: Rattus norvegicus, Lewis.
The target in data set [6] is T1, Nuclear receptor ROR-gamma (Homo sapiens, UniProt P51449).
T1 sequence (P51449 whole entry): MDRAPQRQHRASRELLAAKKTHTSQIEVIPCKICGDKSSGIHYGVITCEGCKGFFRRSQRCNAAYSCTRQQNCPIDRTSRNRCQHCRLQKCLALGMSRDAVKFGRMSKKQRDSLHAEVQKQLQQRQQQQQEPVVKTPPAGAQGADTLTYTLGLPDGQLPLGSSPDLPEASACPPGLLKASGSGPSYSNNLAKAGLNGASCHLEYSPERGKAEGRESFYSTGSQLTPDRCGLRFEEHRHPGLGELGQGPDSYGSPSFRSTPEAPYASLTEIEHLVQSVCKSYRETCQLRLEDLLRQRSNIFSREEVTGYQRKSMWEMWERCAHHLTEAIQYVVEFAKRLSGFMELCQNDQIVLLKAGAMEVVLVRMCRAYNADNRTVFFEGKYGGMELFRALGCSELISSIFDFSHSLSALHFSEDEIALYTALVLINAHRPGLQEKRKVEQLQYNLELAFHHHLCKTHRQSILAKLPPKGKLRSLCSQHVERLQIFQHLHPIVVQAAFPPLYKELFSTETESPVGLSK
Description: Displacement of BODIPY-labeled-(R)-N-(2-(3,5-difluoro-4-(trimethylsilyl)phenylamino)-1-(4-(methoxymethyl)phenyl)-2-oxoethyl)-5-(2-((1-(difluoroboryl)-3,5-dimethyl-1H-pyrrol-2-yl)methylene)-2H-pyrrol-5-yl)pentanamide from human His-tagged RORgammat after 20 mins by TR-FRET assay. On the technique in general: TR-FRET usually uses a lanthanide donor and a delayed reading to cut background.

The target of data set [7] is T1, Nuclear receptor ROR-gamma. Description: Inverse agonist activity at RORgammat (unknown origin) expressed in human Jurkat cells assessed as inhibition of transcriptional activity after overnight incubation by human IL-17 ROR response element driven-bright-glo luciferase reporter gene assay. In kind it is cell-based. (In general: A reporter such as luciferase makes a cellular process visible.)

Description for tissue or blood: Inverse agonist activity at RORgammat in Lewis rat whole blood assessed as inhibition of IL-17A production incubated for 1 hr followed by PMA/ionomycin stimulation measured after 24 hrs by ELISA

As a reminder, the AUC is concentration integrated over time. Higher therefore signals more exposure. Usually bioavailability stands for the share of a dose that reaches the circulation, judged against a reference dose that is usually intravenous. A higher bioavailability goes with good availability. Consider `CCn1c(=O)c2cc(NC(=O)CC(C)CC(=O)Nc3ccc(C#N)c(Cl)c3)ccc2n(CC2CC2)c1=O` (racemic), for which the AUC in data set [1] worked out at 33 ng·h/mL. In addition, the clearance in [2] was 28.4 mL/min/kg. For the same molecule, the bioavailability in data set [3] is 5.5%.
The term solubility (kinetic) denotes the concentration staying in solution when a stock, usually in DMSO, is diluted into the medium. By logD is commonly meant lipophilicity at a set pH, counting ionised and neutral species. In data set [4], `CCn1c2ccccc2c2cc(NC(=O)CC(C)CC(=O)Nc3ccc(C#N)c(Cl)c3)ccc21` (racemic) registered a solubility (kinetic) of 0.15 µg/mL (≈ 0.317 µM). The same molecule showed a pH-dependent lipophilicity (logD) in [5] of 3.76.
In [4], `CCN1C(=O)COc2cc(NC(=O)CC(C)CC(=O)Nc3ccc(C#N)c(Cl)c3)ccc21` (racemic) had a solubility (kinetic) of 12 µg/mL (≈ 26.4 µM).
Regarding `CCC1Oc2cc(NC(=O)CC(C)CC(=O)Nc3ccc(C#N)c(Cl)c3)ccc2N(CC)C1=O` (racemic), in data set [4], the kinetic solubility turned out to be 5.6 µg/mL (≈ 11.6 µM).
`CCn1c(=O)n(CC2CC2)c(=O)c2cc(NC(=O)CC(C)CC(=O)Nc3ccc(C#N)c(Cl)c3)ccc21` (racemic) showed an AUC in [1] of 10 ng·h/mL. In [2], this molecule showed a clearance of 44 mL/min/kg. The molecule further gave a bioavailability in data set [3] of 2.7%.
On to `CCn1ccc2cc(NC(=O)CC(C)CC(=O)Nc3ccc(C#N)c(Cl)c3)ccc21` (racemic), for which the kinetic solubility in data set [4] turned out to be 0.1 µg/mL (≈ 0.236 µM).
One may read the IC50 as the concentration at which inhibition is half-maximal. In data set [1], `CC(CC(=O)Nc1ccc(C#N)c(Cl)c1)CC(=O)Nc1ccc2c(c1)c(=O)n(CC1CC1)c(=O)n2CC1CC1` (racemic) came in with an AUC of 106 ng·h/mL. In [2], the clearance was 11.2 mL/min/kg. The bioavailability in data set [3] is 7.1%. Besides, in the data set on Rattus norvegicus, the minimal effective dose stood at 100 mg/kg. In “tissue or blood”, this molecule had an IC50 of 0.057 µM.
Regarding `CCn1c(=O)oc2cc(NC(=O)CC(C)CC(=O)Nc3ccc(C#N)c(Cl)c3)ccc21` (racemic), in [4], the kinetic solubility is 0.9 µg/mL (≈ 2.04 µM).
Regarding `CCN1C(=O)C(C)Oc2cc(NC(=O)CC(C)CC(=O)Nc3ccc(C#N)c(Cl)c3)ccc21` (racemic), the solubility (kinetic) in [4] was determined as 23 µg/mL (≈ 49 µM). Besides, the log distribution coefficient (logD) in data set [5] was 2.66.
The molecule `CCn1c2c(c3cc(NC(=O)CC(C)CC(=O)Nc4ccc(C#N)cc4)ccc31)CCCC2` (racemic) had a kinetic solubility in [4] of 0.06 µg/mL (≈ 0.136 µM).
For the molecule `CCn1c2ccccc2c2cc(NC(=O)CC(C)CC(=O)Nc3ccccc3C#N)ccc21` (racemic), the IC50 was more than 10 µM in data set [6] and more than 30 µM in data set [7].
`CC(CC(=O)Nc1ccc(C#N)cc1)CC(=O)Nc1ccc2[nH]c3c(c2c1)CCCC3` (racemic) showed a solubility (kinetic) in data set [4] of 0.19 µg/mL (≈ 0.458 µM).
Take `CCn1c(=O)c2cc(NC(=O)CC(C)CC(=O)Nc3ccc(C#N)c(Cl)c3)ccc2n(CC)c1=O` (racemic): the kinetic solubility in [4] stood at 42 µg/mL (≈ 84.7 µM). This molecule returned a logD in data set [5] of 2.99. The same molecule came in with an area under the curve (AUC) in data set [1] of 39 ng·h/mL. For the same molecule, the clearance in data set [2] is 26.8 mL/min/kg. This molecule showed a bioavailability in [3] of 6.2%.
